Measured values from patent US7795290B2 (Genentech, Inc., priority 2004, dated 2010).

Experiments:
Experiment in all cases: HTS ATP-utilizing enzyme assay, off-chip mobility-shift (Caliper HTS 250)
Type in all cases: biochemical
Conditions in all cases: kinase named = inhibitory activity/selectivity; test compound 10 μM; active = greater than three-sigma from mean
DYRK2 = molecular target: T1, DYRK2 (Homo sapiens, UniProt Q92630)
T1 sequence (Q92630 1-601): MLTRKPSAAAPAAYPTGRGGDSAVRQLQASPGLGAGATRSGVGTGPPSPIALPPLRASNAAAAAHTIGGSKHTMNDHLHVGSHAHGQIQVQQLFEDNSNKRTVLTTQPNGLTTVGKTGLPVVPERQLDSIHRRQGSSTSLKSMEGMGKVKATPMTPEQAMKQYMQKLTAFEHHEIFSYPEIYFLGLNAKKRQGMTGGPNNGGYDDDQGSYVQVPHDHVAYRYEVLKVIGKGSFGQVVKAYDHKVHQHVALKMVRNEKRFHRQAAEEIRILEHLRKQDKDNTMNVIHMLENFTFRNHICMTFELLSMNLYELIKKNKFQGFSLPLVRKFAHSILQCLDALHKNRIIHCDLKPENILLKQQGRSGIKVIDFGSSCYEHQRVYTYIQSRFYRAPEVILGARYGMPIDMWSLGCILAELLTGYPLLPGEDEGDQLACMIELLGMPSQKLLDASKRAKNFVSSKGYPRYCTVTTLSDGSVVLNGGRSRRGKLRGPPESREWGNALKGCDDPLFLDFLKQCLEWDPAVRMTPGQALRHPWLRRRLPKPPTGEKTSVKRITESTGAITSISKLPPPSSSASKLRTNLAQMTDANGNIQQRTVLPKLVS
Source text: (§1) The following procedures describe the reagent and plate preparation for a HTS of an ATP-utilizing enzyme, such as a protein kinase, run in an off-chip mobility-shift assay format. The following provides an HTS protocol for running a protein kinase HTS screen on a Caliper HTS 250 microfluidics system. The following parameters are dependent on the protein kinase used and can be determined by one skilled in the art as part of a typical assay development process. For example, the peptide substrate used can be identified from the current literature, by screening a peptide library of potential protein kinase substrates, or by other applicable means accepted in the field.
(§2) Assays to determine the kinase inhibitory activity of chemical entities of the present disclosure were performed using a Caliper HTS 250 microfluidics device, Greiner U-bottom assay plates, a Multidrop for transfer of reagents, and Biomek FX (AMNCBM03) software. Initially, 2.4 μL of a 1 mM solution of a test compound in 100% DMSO was added to a well of the Greiner U-bottom plate. A single Greiner U-bottom plate having 24×16 wells could include multiple test compounds. Next, 40 μL of 1.06× Assay Buffer was added to each well of the assay plate. Using the Biomek FX, 10 μL of 0.5 M EDTA was added by the span-8 to wells, indicated as 100% Control and 2.4 μL of 100% DMSO was added by the span-8 to wells, indicated as 0% Control. Using the Multidrop, 10 μL of 2.5× Enzyme Buffer, followed by 10 μL of 2.5× Substrate Buffer was added to each well of the assay plate. The total reaction volume in each well was 25 μL, and the concentration of the test compound was 10 μM. The assay plate was incubated for 2.5 hrs at 20° C. to 22° C. After the incubation period, using the Multidrop, 45 μL of 1.55× Termination Buffer was added to each well of the assay plate to stop the reaction. The inhibition of the ATP-utilizing enzyme, such as a particular protein kinase, was determined by measuring the ratio of the peptide substrate to phosphorylated product for each well of the assay plate using the Caliper HTS 250 system.
(§3) The use of three-sigma statistical limits represents a conservative method for declaring potential hits among targets. The three-sigma activity, as well as the mean population activity, can be different for each target enzyme. This method has an expected false positive rate, from an in-control measurement process, of […].
(§4) Each chemical entity listed in Table 2 was tested for protein kinase inhibitory activity according to the biological assays and definitions of protein kinase inhibitory activity as described herein. For each exemplary compound listed in Table 2, the inhibitory activity for at least one protein kinase according to the biological assays and definitions of protein kinase inhibitory activity as described herein is indicated.

GSK-3-α = GSK-3-α (Homo sapiens, UniProt P49840)
Source text: as §1, §2, §3, §4

AKT1 = molecular target: T2, AKT1 (Homo sapiens, UniProt P31749)
T2 construct: purchased Upstate 14-276
Procedure, shortened: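 AKT1 activity was measured by off-chip mobility shift (Caliper HTS 250) as the ratio of peptide substrate to phosphorylated product. Test compound was at 10 μM, with 2.5 h incubation at 20–22° C. EDTA wells served as 100% control and DMSO wells as 0%. Hits were called at three-sigma limits.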

CHEK2 = CHEK2 (Homo sapiens, UniProt O96017)
Source text: as §1, §2, §3, §4

AURORA-A = molecular target: T3, AURORA-A (Homo sapiens, UniProt O14965)
T3 sequence (O14965 1-403): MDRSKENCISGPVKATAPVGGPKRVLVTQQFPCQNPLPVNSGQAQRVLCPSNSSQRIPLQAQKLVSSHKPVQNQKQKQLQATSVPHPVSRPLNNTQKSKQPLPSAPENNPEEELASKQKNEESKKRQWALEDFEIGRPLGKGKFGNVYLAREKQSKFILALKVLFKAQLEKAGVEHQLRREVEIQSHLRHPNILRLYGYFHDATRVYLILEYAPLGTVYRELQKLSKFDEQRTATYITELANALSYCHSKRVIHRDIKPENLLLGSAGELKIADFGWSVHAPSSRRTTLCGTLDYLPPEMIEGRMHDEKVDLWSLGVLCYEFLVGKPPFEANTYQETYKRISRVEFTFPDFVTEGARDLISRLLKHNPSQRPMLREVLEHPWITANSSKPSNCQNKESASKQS
Source text: as §1, §2, §3, §4

KIT = KIT (Homo sapiens, UniProt P10721)
Source text: as §1, §2, §3, §4

ZAP70 = molecular target: T4, ZAP70 (Homo sapiens, UniProt P43403)
T4 sequence (P43403 1-619): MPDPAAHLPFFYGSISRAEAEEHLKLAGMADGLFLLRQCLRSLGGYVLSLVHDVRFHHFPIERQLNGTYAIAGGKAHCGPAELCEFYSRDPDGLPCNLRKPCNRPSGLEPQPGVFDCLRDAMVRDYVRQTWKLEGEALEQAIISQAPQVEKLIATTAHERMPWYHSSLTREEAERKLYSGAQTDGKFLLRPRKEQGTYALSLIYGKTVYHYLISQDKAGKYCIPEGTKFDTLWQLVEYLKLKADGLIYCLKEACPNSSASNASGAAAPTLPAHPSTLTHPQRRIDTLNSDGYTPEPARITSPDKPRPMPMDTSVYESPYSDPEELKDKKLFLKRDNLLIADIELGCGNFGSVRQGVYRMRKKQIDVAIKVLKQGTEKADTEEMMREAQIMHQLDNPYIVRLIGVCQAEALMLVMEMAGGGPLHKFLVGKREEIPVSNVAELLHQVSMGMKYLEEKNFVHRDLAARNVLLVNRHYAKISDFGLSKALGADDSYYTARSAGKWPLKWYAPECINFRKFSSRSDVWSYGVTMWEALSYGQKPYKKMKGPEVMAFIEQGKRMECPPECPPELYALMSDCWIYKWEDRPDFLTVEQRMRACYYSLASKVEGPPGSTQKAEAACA
Source text: as §1, §2, §3, §4

Chain of CHEK2 (O96017 whole entry): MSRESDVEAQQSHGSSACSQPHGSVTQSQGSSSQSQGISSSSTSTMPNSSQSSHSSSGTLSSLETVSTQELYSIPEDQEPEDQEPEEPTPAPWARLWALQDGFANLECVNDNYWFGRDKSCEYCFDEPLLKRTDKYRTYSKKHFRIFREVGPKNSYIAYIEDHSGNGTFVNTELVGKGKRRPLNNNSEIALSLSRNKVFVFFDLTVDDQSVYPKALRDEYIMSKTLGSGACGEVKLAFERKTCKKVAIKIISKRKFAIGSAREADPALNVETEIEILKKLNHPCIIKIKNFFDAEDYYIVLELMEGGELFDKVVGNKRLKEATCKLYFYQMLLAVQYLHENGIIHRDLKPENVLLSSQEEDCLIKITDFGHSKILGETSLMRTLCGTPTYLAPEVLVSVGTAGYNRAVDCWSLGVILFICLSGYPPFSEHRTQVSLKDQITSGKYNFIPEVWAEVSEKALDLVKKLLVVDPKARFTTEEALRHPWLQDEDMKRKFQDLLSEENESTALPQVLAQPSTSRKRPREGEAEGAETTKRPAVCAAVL
Chain of GSK-3-α (P49840 whole entry): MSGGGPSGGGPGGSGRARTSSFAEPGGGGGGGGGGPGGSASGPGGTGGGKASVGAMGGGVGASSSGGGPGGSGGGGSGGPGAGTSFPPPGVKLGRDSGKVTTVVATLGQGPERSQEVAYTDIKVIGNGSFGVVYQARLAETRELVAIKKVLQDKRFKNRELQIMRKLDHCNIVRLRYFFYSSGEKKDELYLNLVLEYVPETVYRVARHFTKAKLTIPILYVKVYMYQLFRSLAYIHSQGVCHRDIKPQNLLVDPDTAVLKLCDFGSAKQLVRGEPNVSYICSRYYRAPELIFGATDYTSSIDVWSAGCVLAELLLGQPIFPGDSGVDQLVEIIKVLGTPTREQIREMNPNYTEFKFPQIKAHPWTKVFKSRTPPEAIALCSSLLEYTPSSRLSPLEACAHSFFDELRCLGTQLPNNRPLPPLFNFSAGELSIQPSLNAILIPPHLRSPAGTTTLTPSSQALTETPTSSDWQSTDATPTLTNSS
Chain of KIT (P10721 26-976): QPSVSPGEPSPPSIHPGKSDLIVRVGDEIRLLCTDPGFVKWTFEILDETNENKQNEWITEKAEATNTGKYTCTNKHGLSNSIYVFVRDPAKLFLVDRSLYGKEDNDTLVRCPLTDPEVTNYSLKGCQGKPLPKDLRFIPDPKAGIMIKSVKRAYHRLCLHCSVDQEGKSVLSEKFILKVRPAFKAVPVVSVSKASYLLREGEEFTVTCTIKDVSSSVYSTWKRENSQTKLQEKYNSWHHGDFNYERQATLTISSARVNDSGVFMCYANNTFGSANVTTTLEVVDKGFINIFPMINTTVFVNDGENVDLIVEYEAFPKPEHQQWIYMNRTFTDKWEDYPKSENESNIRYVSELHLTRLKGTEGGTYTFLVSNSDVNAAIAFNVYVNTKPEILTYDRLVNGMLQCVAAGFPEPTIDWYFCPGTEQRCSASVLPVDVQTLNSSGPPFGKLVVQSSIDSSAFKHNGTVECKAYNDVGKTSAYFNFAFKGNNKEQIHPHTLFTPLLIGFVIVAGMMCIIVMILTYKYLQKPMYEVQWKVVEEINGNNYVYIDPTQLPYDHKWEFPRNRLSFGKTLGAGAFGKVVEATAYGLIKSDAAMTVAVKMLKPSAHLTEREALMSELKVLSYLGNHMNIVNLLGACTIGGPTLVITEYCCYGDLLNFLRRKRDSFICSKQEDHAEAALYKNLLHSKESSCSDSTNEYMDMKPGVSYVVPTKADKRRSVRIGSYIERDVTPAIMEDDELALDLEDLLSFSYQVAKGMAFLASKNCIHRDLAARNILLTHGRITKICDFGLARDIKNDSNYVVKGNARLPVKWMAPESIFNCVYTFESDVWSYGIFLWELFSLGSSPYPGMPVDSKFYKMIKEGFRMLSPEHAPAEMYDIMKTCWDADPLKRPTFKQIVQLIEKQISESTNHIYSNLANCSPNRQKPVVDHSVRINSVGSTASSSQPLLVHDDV
T2 sequence (P31749 whole entry): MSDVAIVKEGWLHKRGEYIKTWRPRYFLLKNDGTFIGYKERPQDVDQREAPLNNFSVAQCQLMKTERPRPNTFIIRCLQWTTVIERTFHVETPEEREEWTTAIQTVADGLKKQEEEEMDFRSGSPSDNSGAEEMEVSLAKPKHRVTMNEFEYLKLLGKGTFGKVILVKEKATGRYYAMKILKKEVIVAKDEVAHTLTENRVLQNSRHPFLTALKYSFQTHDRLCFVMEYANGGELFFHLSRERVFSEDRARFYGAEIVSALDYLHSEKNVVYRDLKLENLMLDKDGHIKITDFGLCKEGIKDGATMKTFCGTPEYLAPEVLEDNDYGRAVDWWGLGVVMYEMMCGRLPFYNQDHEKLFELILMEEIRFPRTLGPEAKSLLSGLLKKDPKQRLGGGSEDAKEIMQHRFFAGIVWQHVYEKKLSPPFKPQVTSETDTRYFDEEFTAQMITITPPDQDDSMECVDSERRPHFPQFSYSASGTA

Row | SMILES | Activity (AKT1) | Activity (CHEK2) | Activity (KIT) | also measured
1 | COc1ccc(-c2csc(N(CCCN3CCOCC3)C(=O)COc3ccccc3)n2)cc1 [N-(4-(4-methoxyphenyl)thiazol-2-yl)-N-(3-morpholinopropyl)-2-phenoxyacetamide] | – | – | – | Activity (DYRK2): DYRK2; Activity (GSK-3-α): GSK-3-α
2 | CC(=O)N(CCCN1CCOCC1)c1nc(-c2ccccc2)cs1 [N-(3-morpholinopropyl)-N-(4-phenylthiazol-2-yl)acetamide] | – | – | – | Activity (GSK-3-α): GSK-3-α
3 | CN1CCN(CCCN(C(=O)c2cccs2)c2nc(-c3ccccc3)cs2)CC1 [N-(3-(4-methylpiperazin-1-yl)propyl)-N-(4-phenylthiazol-2-yl)thiophene-2-carboxamide] | AKT1 | CHEK2 | – | –
4 | COc1ccc(OC)c(-c2csc(N(Cc3ccccc3)C(=O)CCC(=O)O)n2)c1 [4-(benzyl(4-(2,5-dimethoxyphenyl)thiazol-2-yl)amino)-4-oxobutanoic acid] | – | – | – | Activity (AURORA-A): AURORA-A
5 | COc1ccc(-c2csc(N(CCCN3CCOCC3)C(=O)c3ccc(C)o3)n2)cc1 [N-(4-(4-methoxyphenyl)thiazol-2-yl)-5-methyl-N-(3-morpholinopropyl)furan-2-carboxamide] | AKT1 | – | KIT | –
6 | O=C(c1cccs1)N(CCCN1CCOCC1)c1nc(-c2ccnc(Cl)c2)cs1 [N-(4-(2-chloropyridin-4-yl)thiazol-2-yl)-N-(3-morpholinopropyl)thiophene-2-carboxamide] | AKT1 | – | KIT | –
7 | COc1ccc(OC)c(-c2csc(N(CCCN(C)C)C(=O)c3ccccc3F)n2)c1 [N-(4-(2,5-dimethoxyphenyl)thiazol-2-yl)-N-(3-(dimethylamino)propyl)-2-fluorobenzamide] | AKT1 | CHEK2 | – | –
8 | COc1ccc(-c2csc(N(CCCN3CCOCC3)C(=O)c3ccno3)n2)cc1 [N-(4-(4-methoxyphenyl)thiazol-2-yl)-N-(3-morpholinopropyl)isoxazole-5-carboxamide] | AKT1 | – | – | Activity (AURORA-A): AURORA-A
9 | N#Cc1cccc(-c2csc(N(CCCN3CCOCC3)C(=O)c3cccs3)n2)c1 [N-(4-(3-cyanophenyl)thiazol-2-yl)-N-(3-morpholinopropyl)thiophene-2-carboxamide] | AKT1 | – | KIT | Activity (GSK-3-α): GSK-3-α
10 | O=C(c1cccs1)N(CCCN1CCOCC1)c1nc(-c2ccncc2)cs1 [N-(3-morpholinopropyl)-N-(4-(pyridin-4-yl)thiazol-2-yl)thiophene-2-carboxamide] | AKT1 | – | KIT | –
11 | COc1ccc(OC)c(-c2csc(N(CCc3ccc(OC)c(OC)c3)C(=O)CCC(=O)O)n2)c1 [4-((3,4-dimethoxyphenethyl)(4-(2,5-dimethoxyphenyl)thiazol-2-yl)amino)-4-oxobutanoic acid] | – | – | – | Activity (GSK-3-α): GSK-3-α
12 | COc1ccc(OC)c(-c2csc(N(CCCN3CCN(C)CC3)C(=O)c3ccco3)n2)c1 [N-(4-(2,5-dimethoxyphenyl)thiazol-2-yl)-N-(3-(4-methylpiperazin-1-yl)propyl)furan-2-carboxamide] | AKT1 | CHEK2 | – | –
13 | COc1ccc(-c2csc(N(CCCN3CCN(C)CC3)C(=O)c3ccccc3)n2)cc1 [N-(4-(4-methoxyphenyl)thiazol-2-yl)-N-(3-(4-methylpiperazin-1-yl)propyl)benzamide] | AKT1 | CHEK2 | – | –
14 | CN(C)CCCN(C(=O)c1ccccc1F)c1nc(-c2ccccc2)cs1 [N-(3-(dimethylamino)propyl)-2-fluoro-N-(4-phenylthiazol-2-yl)benzamide] | AKT1 | CHEK2 | – | –
15 | COc1ccc(-c2csc(N(CCCN3CCOCC3)C(=O)c3ccc(SC)s3)n2)cc1 [N-(4-(4-methoxyphenyl)thiazol-2-yl)-5-(methylthio)-N-(3-morpholinopropyl)thiophene-2-carboxamide] | – | – | KIT | Activity (ZAP70): ZAP70
16 | CCN(CC)CCCN(C(=O)c1ccccc1F)c1nc(-c2cc(OC)ccc2OC)cs1 [N-(3-(diethylamino)propyl)-N-(4-(2,5-dimethoxyphenyl)thiazol-2-yl)-2-fluorobenzamide] | AKT1 | CHEK2 | – | –
17 | COc1ccc(OC)c(-c2csc(N(CCCN(C)C)C(=O)c3cccs3)n2)c1 [N-(4-(2,5-dimethoxyphenyl)thiazol-2-yl)-N-(3-(dimethylamino)propyl)thiophene-2-carboxamide] | AKT1 | CHEK2 | – | –
18 | COc1ccc(-c2csc(N(CCCN3CCOCC3)C(=O)c3c(C)noc3C)n2)cc1 [N-(4-(4-methoxyphenyl)thiazol-2-yl)-3,5-dimethyl-N-(3-morpholinopropyl)isoxazole-4-carboxamide] | – | – | KIT | Activity (ZAP70): ZAP70
19 | COc1ccc(OC)c(-c2csc(N(CCCN(C)C)C(C)=O)n2)c1 [N-(4-(2,5-dimethoxyphenyl)thiazol-2-yl)-N-(3-(dimethylamino)propyl)acetamide] | – | – | – | Activity (GSK-3-α): GSK-3-α
20 | O=C(c1cccs1)N(CCCN1CCOCC1)c1nc(-c2ccc3c(c2)OCCCO3)cs1 [N-(4-(3,4-dihydro-2H-benzo[b][1,4]dioxepin-7-yl)thiazol-2-yl)-N-(3-morpholinopropyl)thiophene-2-carboxamide] | AKT1 | – | KIT | –
